Reference: patent publication US9403806B1, “Cognition enhancing compounds and compositions, methods of making, and methods of treating” (NeuroSolis, Inc., priority 2010, dated 2016)
Where two headings read alike, the source gives them in different places.

Tests used:
in vitro = in vitro ADME; settings: PAMPA, pH 7.4, 400 μM, pH 7.4, 24 hours, room temperature; read-out: PAMPA Permeability Coefficient (×10^6)
Experimental: PAMPA is a useful in vitro model for predicting the passive diffusion of drugs across the blood-brain barrier (Li, D et al Eur jour of Med Chem 38 (2003) 223-232).
Compounds were diluted in a 100 mM phosphate buffer (pH 7.4) to a concentration of 400 μM and the stock solutions were placed into a 96-well filter plate (Millipore, #MAIPN4510) pre-wetted with 20 mg/mL porcine brain polar lipid extract in 100% dodecane (Avanti, #131022) and placed into a 96-well acceptor plate (Millipore, #MSSACCEPTOR) whose wells were filled with the same phosphate buffer as in the filter plate. This assembly was incubated at room temperature for 24 hours. The experiment was halted by separating the filter plate from the acceptor plate. Aliquots were removed from the filter plate wells, acceptor plate wells, and stock solutions, and 1% trifluoroacetic acid was added to each. All solutions were measured by LC/UV, and passive diffusion rates were calculated using the peak area values (Avdeef, Alex. 2003. Page 147 in Absorption and Drug Development. Hoboken, N.J.: John Wiley & Sons).

[1] = target: T1, human muscarinic M3 receptors (Homo sapiens, UniProt P20309); assay type: cell-based; settings: for huM3/A9L Smax: percentage of maximal stimulation by carbachol; for huM3/A9L Potency relative to carbachol: relative to the potency of carbachol at its EC50
T1 construct: host or cells: A9L cells
Experimental: (§1) Muscarinic M1 and M3 agonist activity was evaluated by measuring the stimulation of inositol phosphate (IP) production in the presence of lithium chloride from A9L cells transfected with expression plasmids containing human muscarinic M1 and M3 receptors, respectively. The cell lines were a gift from Professor William Messer, and the methods were as described in Tejada et al. (J. Med. Chem. 2006; 49: 7518-31) except that the assay was scaled down to run in 384-well plates and the concentration of inositol-1-phosphate in the lysates was determined using the non-isotopic IP-One Terbium TR-FRET assay kit (Cisbio Bioassays, cat. #62IPAPEJ) according to the manufacturer's instructions.
(§2) Cells were grown to 90% confluence in 384-well high-base, small-volume plates (Greiner Bio-One), compounds were added at suitable concentrations in growth medium containing 10 mM LiCl, buffered with an extra 10 mM HEPES (pH=7.4), and incubated for 60 minutes at 37° C. Cells were lysed and assayed for IP following the manufacturer's instructions.
(§3) The value for a full agonist is 100%, while partial agonists give values below 100%.

[2] = target: T2, human muscarinic M1 receptors (Homo sapiens, UniProt P11229); assay type: cell-based; settings: for huM1/A9L Smax: percentage of maximal stimulation by carbachol; for huM1/A9L Potency relative to carbachol: relative to the potency of carbachol at its EC50
T2 construct: host or cells: A9L cells
T2 sequence (P11229 1-460): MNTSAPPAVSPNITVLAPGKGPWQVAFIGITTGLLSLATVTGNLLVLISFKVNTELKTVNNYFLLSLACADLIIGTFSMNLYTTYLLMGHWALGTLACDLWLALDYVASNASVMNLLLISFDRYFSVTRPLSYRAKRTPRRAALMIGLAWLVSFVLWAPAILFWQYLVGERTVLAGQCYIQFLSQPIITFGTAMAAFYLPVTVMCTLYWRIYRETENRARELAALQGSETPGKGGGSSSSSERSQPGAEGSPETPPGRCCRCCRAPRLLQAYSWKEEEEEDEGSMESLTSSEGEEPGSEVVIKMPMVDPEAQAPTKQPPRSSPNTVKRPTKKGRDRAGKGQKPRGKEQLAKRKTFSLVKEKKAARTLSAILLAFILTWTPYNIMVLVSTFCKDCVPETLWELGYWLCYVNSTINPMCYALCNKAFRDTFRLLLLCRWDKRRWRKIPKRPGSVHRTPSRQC
Experimental: as §1, §2, §3

[3] = Blood and brain concentrations (rats), tail vein injection; assay type: in vivo, Long-Evans Hooded rats; settings: male, Long-Evans Hooded, rat, plasma, iv, 3 mg/kg, 3 mg/kg tail vein injection, read-out: Plasma Terminal Half-life (converted)
[4] = test system: muscarinic M1 receptors in the hippocampus; assay: In vivo inositol phosphate increase in hippocampus, Example 44; set-up: species or system Long Evans Hooded rats; settings: rat, 3 mg/kg sc
Experimental: (§4) In lithium chloride-treated laboratory rodents, engagement of muscarinic M1 receptors in the hippocampus may usefully be evaluated in vivo by measuring the increase in the tissue of inositol phosphate (Bymaster F P et al Brain Res 795 (1998) 179-190). This may also be extended to measure engagement of muscaric M3 receptors in the salivary glands.
(§5) Experimental compounds were administered subcutaneously at 3 mg/kg using standard techniques to Long Evans Hooded rats weighing 225 to 350 g, and which had been pretreated with a subcutaneous injection of lithium chloride at a suitable dose between 3 and 5 mmole/kg. At suitable times the animals were briefly anesthetized using 5% isoflurane and euthanized by decapitation. The brains and submaxillary salivary glands were rapidly dissected out, and the hippocampuses were dissected from the brains. The dissected tissues were homogenized in a suitable volume of ice-cold phosphate-buffered saline containing 10 mM lithium chloride (pH=7.4) using a tissue homogenizer, and used immediately or frozen in aliquots at −80° C. for future use. The concentration of inositol-1-phosphate was determined in the homogenates using the […] IP-One Terbium TR-FRET assay kit (Cisbio Bioassays, cat. #62IPAPEJ) according to the manufacturer's instructions.

[5] = Blood and brain concentrations (rats), tail vein injection; assay type: in vivo, Long-Evans Hooded rats; settings: male, Long-Evans Hooded, rat, 3 mg/kg; for Kp at 1 h: brain and plasma, intravenous, Table 114, read-out: Brain/Plasma Ratio; for concentration at 1 h: in vivo, 3 mg/kg tail vein injection
Experimental: Long-Evans Hooded rats (Charles River: male, 230-300 g) were dosed with solutions of test compounds in PBS by tail vein injection. The dose for all compounds was 3 mg/kg. At one hour, the animals were anesthetized with isoflurane, and then euthanized by decapitation. Trunk blood was collected into a 1.5 mL microcentrifuge tube containing 15 U Heparin, and the plasma recovered after centrifugation. Brains were dissected, weighed, immediately chilled to 4° C., and homogenized using a PowerGen 125 homogenizer in five volumes of ice-cold 2% formic acid. Proteins were precipitated from plasma and brain homogenate with nine and five volumes respectively of ice-cold 2% formic acid and clarified by centrifugation. The supernatant was ultra-filtered by centrifugation through a 3K MWCO spin column (Pall Life Sciences), following the manufacturer's instructions. The concentration of compound in the ultra-filtrate was subjected to reverse-phase liquid chromatography using a 150×2.1 mm Agent C8 reverse-phase column on a Shimadzu Prominence LC, eluting the compounds with a gradient of 2% to 50% of acetonitrile+0.1% formic acid for all compounds. The concentration of the compound in the column effluent was measured using an Applied Biosystems API-3200 triple quadrupole mass spectrometer equipped with an electrospray sample injection system. The counts of the characteristic parent and product ions of each test compound were converted to concentration units by comparison with a standard curve.

[6] = test system: muscarinic M3 receptors in the salivary glands; assay: In vivo inositol phosphate increase in salivary glands, Example 44; set-up: species or system Long Evans Hooded rats; settings: rat, 3 mg/kg sc
Experimental: as §4, §5

[7] = test system: pooled male human liver microsomes; assay: Metabolism in human liver microsomes, Example 45; assay type: in vitro ADME
Experimental: Aliquots were removed every 2 hours, and 1% formic acid was added to halt the reaction. Samples were centrifuged, filtered through 0.2 micron spinfilter, and the amount of each compound in the supernatants was quantitated using LC/MS/MS as follows. The ultra-filtrates were subjected to reverse-phase liquid chromatography using a 150×2.1 mm Agilent C8-reverse phase column on a Shimadzu Prominence LC, eluting the compound with a gradient of 2%-50% acetonitrile+0.1% formic acid over 5 minutes. The concentration of the compound in the column effluent was measured using an Applied Biosystems API-3200 triple quadrupole mass spectrometer equipped with a Turbo V source (electrospray sample injection) system. The counts of the characteristic parent ions of the protonated compound and product ions were converted to concentration by comparison with a standard calibration curve. The parent/daughter ion pairs that were monitored for each compound were: 166.0/82.0 (105), 166.0/82.0 (106b), 166.0/82.0 (106a), 169.0/83.0 (136), 168.2/83.0 (121), 168.1/83.0 (122a), 168.1/83.0 (122b), 170.2/83.0 (134), 168.2/84.1 (135), 168.1/84.1 (137) and 169.2/82.1 (138).

[8] = read-out: Brain Concentration at 1 hr
[9] = read-out: Plasma Concentration at 1 hr

T1 sequence (P20309 whole entry): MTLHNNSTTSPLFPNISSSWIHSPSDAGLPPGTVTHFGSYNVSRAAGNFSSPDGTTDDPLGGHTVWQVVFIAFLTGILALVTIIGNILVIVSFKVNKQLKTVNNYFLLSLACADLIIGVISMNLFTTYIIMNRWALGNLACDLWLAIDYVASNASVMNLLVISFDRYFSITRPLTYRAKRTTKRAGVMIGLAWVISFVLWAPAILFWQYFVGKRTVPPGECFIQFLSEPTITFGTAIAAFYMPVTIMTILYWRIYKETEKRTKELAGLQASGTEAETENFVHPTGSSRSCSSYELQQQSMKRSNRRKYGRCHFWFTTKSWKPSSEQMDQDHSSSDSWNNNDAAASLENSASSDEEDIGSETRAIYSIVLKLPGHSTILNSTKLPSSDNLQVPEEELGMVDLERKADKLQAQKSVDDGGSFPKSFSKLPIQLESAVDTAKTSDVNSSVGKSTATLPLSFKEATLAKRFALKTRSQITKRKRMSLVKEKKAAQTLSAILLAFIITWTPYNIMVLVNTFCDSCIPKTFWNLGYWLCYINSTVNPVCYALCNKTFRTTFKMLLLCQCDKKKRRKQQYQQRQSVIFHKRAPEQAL

SMILES | Papp at 24 h, 400 µM (in vitro) [×10⁻⁶ cm/s] | huM3/A9L Smax [1] [%] | huM3/A9L Potency relative to carbachol [1] | huM1/A9L Smax [2] [%] | huM1/A9L Potency relative to carbachol [2] | half-life [3] [h] | Increase in Inositol Phosphate in Hippocampus/Control ([4]; 5 mmole/kg LiCl) [%] | Kp at 1 h [5] | concentration at 1 h [5, 8] [µM] | concentration at 1 h [5, 9] [µM] | Increase in Inositol Phosphate in Salivary Gland/Control ([6]; 5 mmole/kg LiCl) [%] | Loss at 6 hrs (%) [7] [%] | Increase in Inositol Phosphate in Hippocampus/Control ([4]; 3 mmole/kg LiCl) [%] | Increase in Inositol Phosphate in Salivary Gland/Control ([6]; 3 mmole/kg LiCl) [%]
Cc1noc(C23CNCC2C3)n1 (racemic) [Compound 105, 5-(3-Azabicyclo[3.1.0]hexan-1-yl)-3-methyl-1,2,4-oxadiazole] | 4.49 | 33 | 0.17 | 58 | 0.78 | 1.1 | 563 | 0.38 | 4.4 | 15 | 219 | 27 | – | –
[2H]C1([2H])NCC2(c3nc(C)no3)CC12 (racemic) [Compound 121, 5-(4,4-d2-3-Azabicyclo[3.1.0]hexan-1-yl)-3-methyl-1,2,4-oxadiazole] | 3.78 | 37 | – | 73 | – | 1.26 | 795 | 0.51 | 8.6 | 16.8 | 239 | 13 | – | –
Cc1noc([C@@]23CNC[C@@H]2C3)n1 [Compound 106a, 5-((1R,5R)-3-Azabicyclo[3.1.0]hexan-1-yl)-3-methyl-1,2,4-oxadiazole] | 4.25 | 45 | 0.46 | 80 | 1.72 | 0.7 | 376 | 0.39 | 3.5 | 5.6 | 191 | 50 | – | –
Cc1noc([C@]23CNC[C@H]2C3)n1 [Compound 106b, 5-((1S,5S)-3-Azabicyclo[3.1.0]hexan-1-yl)-3-methyl-1,2,4-oxadiazole] | 4.37 | 42 | 0.27 | 40 | 0.51 | 1.1 | 141 | 0.6 | 5.5 | 9.5 | 104 | 29 | – | –
[2H]C1([2H])NC[C@@]2(c3nc(C)no3)C[C@@H]12 [Compound 122a, 5-((1R,5R)-4,4-d2-3-azabicyclo[3.1.0]hexan-1-yl)-3-methyl-1,2,4-oxadiazole] | 3.93 | 44 | 0.38 | 77 | 1.09 | 0.97 | – | 0.59 | 5 | 12.2 | – | 20 | 487 | 182
[2H]C1([2H])NC[C@]2(c3nc(C)no3)C[C@H]12 [Compound 122b, 5-((1S,5S)-4,4-d2-3-azabicyclo[3.1.0]hexan-1-yl)-3-methyl-1,2,4-oxadiazole] | 3.7 | 28 | 0.50 | 47 | 0.54 | 1.3 | – | 0.58 | 5.1 | 8.8 | – | 13 | 150 | 163
[2H]C1([2H])NC([2H])([2H])C2(c3nc(C)no3)CC12 (stereo not shown) [Compound 134, 5-(2,2,4,4-d4-3-Azabicyclo[3.1.0]hexan-1-yl)-3-methyl-1,2,4-oxadiazole] | 3.46 | 41 | 0.35 | 61 | 1.17 | 1.4 | 574 | 0.65 | 8.4 | 13.5 | 214 | 10 | – | –
